Test results published in patent EP4782437A1, “HETEROARYL COMPOUND, AND PREPARATION METHOD THEREFOR AND USE THEREOF IN MEDICINE” (Jiangsu Hengrui Pharmaceuticals Co., Ltd., priority 2023, dated 2025).
Where two headings read alike, the source gives them in different places.

Columns and labels:
[1] = target: T1, BTK recombinant human protein (Homo sapiens, UniProt Q06187); assay: Inhibitory activity against BTK (HTRF KinEASE-TK kit); assay type: biochemical
T1 construct: purchased Thermo PV3363
Method: Test example 1: Inhibitory activity of compounds of the present disclosure against BTK • I. Experimental materials and instruments • 1. BTK recombinant human protein (Thermo, PV3363) • 2. HTRF KinEASE-TK kit (Cisbio, 62TK0PEC) • 3. 1 M MgCl2 (Thermo, AM9530G) • 4. 1 M MnCl2 (Sigma, M1787-100ML) • 5. Adenosine 5'-triphosphate (ATP) (New England Biolabs, P0756L) • 6. DTT 2M (Sangon Biotech, B645939) • 7. Ultrapure water (Invitrogen, 10977-015) • 8. OptiPlate-384, white opaque 384-well microplate (PerkinElmer, 6007290) • 9. 96-well round-bottom plate (Corning, 3788) • 10. Biochemical incubator (Shanghai Boxun Medical & Biological Instruments Co., Ltd., BSP-100) • 11. 15-mL centrifuge tube (Corning) • 12. Benchtop high-speed centrifuge (Changsha Yingtai Instrument Co., Ltd., TD4N) • 13. Multifunctional microplate reader (PerkinElmer, EnVision) • 14. Bravo liquid handling platform (Agilent Technologies, SGC120TH34702) • II. Experimental procedure
The HTRF KinEASE-TK kit is designed to detect changes in BTK enzyme activity based on two technologies, i.e., fluorescence resonance energy transfer and time-resolved fluorescence. The kit is operated in two stages: 1) enzyme reaction stage: the enzyme reaction is initiated by adding ATP, where the enzyme phosphorylates the substrate, and the compounds are then added to competitively bind to BTK against ATP, thereby inhibiting substrate phosphorylation; and 2) detection stage: after the enzyme reaction is complete, a detection reagent is added to terminate the reaction. Different groups on the phosphorylated substrate bind to the energy donor and energy acceptor, respectively, bringing the two into close proximity. During the instrumental readout, the energy donor is excited by an external light source, which enables resonance energy transfer to the proximal energy acceptor. The acceptor, in turn, becomes excited and emits light at a specific wavelength. Thus, changes in enzyme activity can be detected by measuring the signal values, and the inhibition rate of the compounds against the target enzyme can be calculated, thereby evaluating the inhibitory effect of the compounds on BTK enzyme activity.
Preparation of enzyme reaction buffer: 5× Kinase Buffer was diluted 5-fold with ultrapure water, and then the stock solutions of MgCl2, MnCl2 and DTT were added. The final composition of the buffer was as follows: 1× Kinase Buffer, 10 mM MgCl2, 1 mM MnCl2, and 1 mM DTT.
(§1) Preparation of 5 × BTK working solution: The BTK (5.17 µM) stock solution was removed from -20°C storage. Given that the BTK concentration in the enzyme reaction system was 2 nM and the concentration of the 5× working solution was 10 nM, the BTK stock solution was diluted 517-fold with the enzyme reaction buffer according to the volume required for the experiment. The diluted solution was then added to the 384-well plate at 2 µL per well. The plate was placed in a plate spinner and centrifuged at 2000 rpm for 1 minute to bring the liquid to the bottom of the wells.
as §1, with “[…]. Given” for “Preparation of 5 × BTK working solution: The BTK (5.17 µM) stock solution was removed from -20°C storage. Given”, “the SEB” for “the BTK”, “was 50” for “was 2”, “was 250” for “was 10”, “diluted 10-fold” for “diluted 517-fold”
The test compounds dissolved in 100% DMSO at 20 mM were diluted with 100% DMSO to a concentration of 200 µM, which represents the 200× concentration of the highest compound concentration point in the reaction system. The compounds at this concentration were then subjected to 10-point 3-fold serial dilution with 100% DMSO. The positive control wells and negative control wells were set with 100% DMSO. […]

[2] = tested on: B cell activation in human whole blood; assay: Inhibition of B cell activation in human whole blood (CD69 expression, flow cytometry); assay type: cell-based; settings: anti-human IgD 30 µg/ml + IL-4 5 ng/ml, 18 hours, CD69-positive CD19-positive B cells, read-out: IC50 values of inhibitory activity against B cell activation in human whole blood
From the text: Test example 2: Inhibitory activity of compounds of the present disclosure against B cell activation in human whole blood • I. Experimental materials and instruments • 1. Human whole blood (internal recruitment) • 2. Goat F(ab')2 anti-human IgD-UNLB (SouthernBiotech, 2032-01) • 3. DPBS (1x) (Gibco, 14190-144) • 4. Recombinant human IL-4 (Peprotech, 200-04) • 5. Brilliant Violet 421™ anti-human CD19 antibody (Biolegend, 302234) • 6. APC anti-human CD69 antibody (Biolegend, 310910) • 7. APC mouse IgG1, κ isotype control antibody (Biolegend, 400120) • 8. eBioscience™ 10X RBC lysis buffer (multi-species) (Thermo, 004300-54) • 9. NEST 96-well deep-well plate (Wuxi NEST Biotechnology Co., Ltd., 503501) • 10. 96-well round-bottom plate (Corning, 3788) • 11. 96-well flat-bottom plate (Corning, 3599) • 12. Attune™ NxT acoustic focusing cytometer (ThermoFisher Scientific, 4.2.0) • 13. Cell incubator (Thermo, Forma steri-cycle i160) • II. Experimental procedure
B cells express the B cell receptor (BCR) complex on their surface. When B cells in human whole blood are induced to activate, they can trigger the downstream signalling pathways of the receptor and express the activation marker CD69. The expression of CD69 in activated B cells was detected by flow cytometry, and the IC50 of the compounds were calculated to evaluate the effects of the compounds on BCR activation.
The test compounds dissolved in 100% DMSO at 20 mM were diluted with 100% DMSO to a concentration of 1 mM, which represents the 200× concentration of the highest compound concentration point in the reaction system. The compounds at this concentration were then subjected to 8-point 4-fold serial dilution with 100% DMSO. The positive control wells were set with 100% DMSO, whereas the negative control wells were set with Remiburtinib at a final concentration of 5 µM. The serially diluted compounds and 100% DMSO were further diluted 10-fold in PBS to achieve the 20× concentration, followed by thorough mixing.
After thorough mixing, the whole blood sample was transferred to a loading reservoir and then dispensed into a 96-well flat-bottom plate at 80 µl per well. The compound dilution was dispensed at 5 µl per well. The 11th column of each row was designated as the negative control well, with 5 µl of 100 µM positive control drug added to each well. After thorough mixing for 5 min, the plate was incubated in a 37°C incubator for 30 min. Human IgD antibody was diluted 1.67-fold with PBS to a concentration of 300 µg/mL, and 10 µl of the diluted solution was added to each well of the culture plate (final concentration: 30 µg/ml). Human IL-4 (stock solution at 50 µg/ml) was diluted 500-fold with PBS to a concentration of 100 ng/mL, and 5 µl of the diluted solution was added to each well of the culture plate (final concentration: 5 ng/ml). After thorough mixing for 5 min, the plate was cultured in a 37°C incubator with 5% CO2 for 18 hours.
Flow cytometry detection: CD69-APC, CD19-BV421 and CD4-APC antibodies, and the isotype control antibodies for CD69-APC were removed from 4°C storage. Each antibody was added at 1 µl per well. After thorough mixing for 5 min, the plate was incubated for 30 min at 4°C (refrigerator) in the dark for staining. The 10X RBC lysis buffer was diluted in water to prepare 1X RBC lysis buffer. Aliquots of 1 ml of the lysis buffer were dispensed into each well of a 96-well deep-well plate in advance. The stained samples were transferred into the deep-well plate containing the lysis buffer for erythrocyte lysis. After completing the transfer of an entire plate, the plate was incubated in the dark for 15-20 min. Upon completion of lysis, the plate was centrifuged at 2000 rpm for 4 min. Each well was washed with 1 ml of PBS. Subsequently, the cells were resuspended in 200 µl of PBS, transferred to a 96-well plate, and washed twice more using the same procedure. The samples were resuspended in 200 µl of PBS per well and then subjected to flow cytometry detection. […]

[3] = 2 nM BTK, 10 µM ATP, 0.5 hours preincubation at 25°C; read-out: IC50 values of inhibitory activity against BTK
[4] = read-out: IC50 values of inhibitory activity against BTK; 2 nM BTK, 10 µM ATP, 0.5 hours preincubation at 25°C

T1 sequence (Q06187 whole entry): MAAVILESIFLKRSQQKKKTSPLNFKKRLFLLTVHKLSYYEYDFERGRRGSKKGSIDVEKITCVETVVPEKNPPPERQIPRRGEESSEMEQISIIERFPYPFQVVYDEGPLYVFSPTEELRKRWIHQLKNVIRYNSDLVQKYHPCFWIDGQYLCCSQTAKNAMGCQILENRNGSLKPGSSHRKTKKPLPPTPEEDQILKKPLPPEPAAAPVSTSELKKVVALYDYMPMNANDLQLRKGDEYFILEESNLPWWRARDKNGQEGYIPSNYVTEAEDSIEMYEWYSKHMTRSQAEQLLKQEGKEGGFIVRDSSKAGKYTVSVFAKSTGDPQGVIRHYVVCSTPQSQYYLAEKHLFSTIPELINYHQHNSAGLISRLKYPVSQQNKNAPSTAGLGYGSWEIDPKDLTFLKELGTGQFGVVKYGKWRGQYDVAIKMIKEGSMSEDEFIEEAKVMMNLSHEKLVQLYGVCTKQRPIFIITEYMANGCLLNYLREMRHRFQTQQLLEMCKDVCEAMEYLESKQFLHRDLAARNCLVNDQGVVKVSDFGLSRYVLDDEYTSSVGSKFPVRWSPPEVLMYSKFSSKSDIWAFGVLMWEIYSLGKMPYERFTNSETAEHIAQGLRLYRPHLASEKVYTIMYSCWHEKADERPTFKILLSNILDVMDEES

| IC50 [1, 3] [nM] | IC50 [2] [nM] | Compound | IC50 [1, 4] [nM] |
| --- | --- | --- | --- |
| 6.09 | 10 to 100 | C=CC(=O)N(C)CCOc1c(N)ncnc1-c1cc(F)cc(NC(=O)c2cc3c(cc2F)C2(CC3)CC2)c1C [Example 1, N-(3-(6-amino-5-(2-(N-methacrylamido)ethoxy)pyrimidin-4-yl)-5-fluoro-2-methylphenyl)-6'-fluoro-2',3'-dihydrospiro[cyclopropane-1,1'-indene]-5'-carboxamide] |  |
|  | 10 to 100 | C=CC(=O)N(C)CCOc1c(N)ncnc1-c1cc(F)cc(NC(=O)c2ccc(C3(C)CC3)cc2F)c1C [Example 2, N-(3-(6-amino-5-(2-(N-methacrylamido)ethoxy)pyrimidin-4-yl)-5-fluoro-2-methylphenyl)-2-fluoro-4-(1-methylcyclopropyl)benzamide] |  |
| 6.9 | 10 to 100 | C=CC(=O)N(C)CCOc1c(N)ncnc1-c1cc(F)cc(NC(=O)c2ccc3c(c2F)OCC32CC2)c1C [Example 5, N-(3-(6-amino-5-(2-(N-methacrylamido)ethoxy)pyrimidin-4-yl)-5-fluoro-2-methylphenyl)-7-fluoro-2H-spiro[benzofuran-3,1'-cyclopropane]-6-carboxamide] |  |
|  |  | C=CC(=O)N(C)CCOc1c(N)ncnc1-c1cc(F)cc(NC(=O)c2sc3c(c2F)CC(C)(C)C3)c1C [Example 6, N-(3-(6-amino-5-(2-(N-methacrylamido)ethoxy)pyrimidin-4-yl)-5-fluoro-2-methylphenyl)-3-fluoro-5,5-dimethyl-5,6-dihydro-4H-cyclopenta[b]thiophene-2-carboxamide] | 6.3 |
| 4 | 10 to 100 | C=CC(=O)N(C)CCOc1c(N)ncnc1-c1cc(F)cc(NC(=O)c2cc3c(cc2F)C(C)(C)CC3)c1C [Example 12, N-(3-(6-amino-5-(2-(N-methacrylamido)ethoxy)pyrimidin-4-yl)-5-fluoro-2-methylphenyl)-6-fluoro-1,1-dimethyl-2,3-dihydro-1H-indene-5-carboxamide] |  |
| 5.74 | 10 to 100 | [2H]C([2H])([2H])N(CCOc1c(N)ncnc1-c1cc(F)cc(NC(=O)c2cc3c(cc2F)C2(CC2)CO3)c1C)C(=O)C=C [Example 17, N-(3-(6-amino-5-(2-(N-(methyl-d3)acrylamido)ethoxy)pyrimidin-4-yl)-5-fluoro-2-methylphenyl)-5-fluoro-2H-spiro[benzofuran-3,1'-cyclopropane]-6-carboxamide] |  |
| 3.78 | 10 to 100 | [2H]C([2H])([2H])N(CCOc1c(N)ncnc1-c1cc(F)cc(NC(=O)c2ccc3c(c2F)OCC32CC2)c1C)C(=O)C=C [Example 18, N-(3-(6-amino-5-(2-(N-(methyl-d3)acrylamido)ethoxy)pyrimidin-4-yl)-5-fluoro-2-methylphenyl)-7-fluoro-2H-spiro[benzofuran-3,1'-cyclopropane]-6-carboxamide] |  |
|  | 10 to 100 | C=CC(=O)N(C)CCOc1c(N)ncnc1-c1cc(F)cc(NC(=O)c2ccc3c(c2F)OC2(CC2)C3)c1C [Example 20] |  |
|  |  | C=CC(=O)N(C)CCOc1c(N)ncnc1-c1cc(F)cc(NC(=O)c2sc3c(c2F)C2(CC3)CC2)c1C [Example 26-2, N-(3-(6-amino-5-(2-(N-methacrylamido)ethoxy)pyrimidin-4-yl)-5-fluoro-2-methylphenyl)-3-fluoro-5,6-dihydrospiro[cyclopenta[b]thiophene-4,1'-cyclopropane]-2-carboxamide] | 6.15 |
| 1.25 |  | C=CC(=O)N1C[C@H](OC)C[C@H]1COc1c(N)ncnc1-c1cc(F)cc(NC(=O)c2ccc3c(c2F)OCC3(C)C)c1C [Example 33, N-(3-(5-(((2S,4R)-1-acryloyl-4-methoxypyrrolidin-2-yl)methoxy)-6-aminopyrimidin-4-yl)-5-fluoro-2-methylphenyl)-7-fluoro-3,3-dimethyl-2,3-dihydrobenzofuran-6-carboxamide] |  |

| Compound | IC50 [1, 3] [nM] | IC50 [2] [nM] | IC50 [1, 4] [nM] |
| --- | --- | --- | --- |
| C=CC(=O)N(C)CCOc1c(N)ncnc1-c1cc(F)cc(NC(=O)c2ccc3c(c2F)OC(C)(C)C3)c1C [Example 4, N-(3-(6-amino-5-(2-(N-methacrylamido)ethoxy)pyrimidin-4-yl)-5-fluoro-2-methylphenyl)-7-fluoro-2,2-dimethyl-2,3-dihydrobenzofuran-6-carboxamide] |  | 10 to 100 | 5.1 |
| C=CC(=O)N(C)CCOc1c(N)ncnc1-c1cc(F)cc(NC(=O)c2cc3c(cc2F)C2(CC3)CC2)c1CO [Example 11, N-(3-(6-amino-5-(2-(N-methacrylamido)ethoxy)pyrimidin-4-yl)-5-fluoro-2-(hydroxymethyl)phenyl)-6'-fluoro-2',3'-dihydrospiro[cyclopropane-1,1'-indene]-5'-carboxamide] |  | 10 to 100 | 4.2 |
